{
  "source": "patent US20150268223A1",
  "about": "“MICR[…]-CULTURE SYSTEMS AS INFECTIOUS DISEASE ANALYSIS PLATFORMS” (Massachusetts Institute of Technology, priority 2008, published 2015)",
  "tested_on": "retroviral pseudoparticles bearing the E1/E2 glycoproteins of the Hepatitis C virus (HCV) genotype 1a strain (H77)",
  "assay_type": "cell-based",
  "data": [
    {"compound": "O=C(O)CN(CCN(CC(=O)O)CC(=O)O)CC(=O)O", "note": "[EDTA]", "values": [
      {"measurement": "access of micropatterned co-cultures to viral pseudoparticles and virus", "value": "dramatically improves access"}
    ]}
  ]
}
